The source of these data is patent publication US20160169896A1, “Methods for Predicting and Treating Bone Metastases in Prostate Cancer Patients” (INSERM (institut NAtional de la Sante et de la Recherche …, priority 2012, published 2016).

In the assay the test system is PC3 cells. As to the kind of experiment: Real-time PCR of factor expression in PC3 cells treated with the ERRα inverse agonist XCT790 versus DMSO. Format: cell-based, human. The note with it: XCT790 5 10^−7M, 24 hours, compared to DMSO control. The method, then:
PC3 cell line was obtained from the American Type Culture Collection (ATCC, Manassas, Va., USA). PC3 cells are routinely cultured in F12K nutrient mixture and DMEM medium (Gibco/Invitrogen; Carlsbad, Calif., USA) respectively supplemented with 10% (v/v) fetal bovine serum (FBS; Perbio/Thermo scientific; Rockford, Ill., USA) and 1% (v/v) penicillin/streptomycin (Invitrogen; Carlsbad, Calif., USA) at 37° C. in a 5% CO2 incubator.
Human ERRα cDNA (WT) was obtained from mRNA extracted from BO2-FRT cells, by using RT-PCR with specific primers ((NM_004451.3) (Fradet et al, 2011). Amplimers were sequenced for verification. The pcDNA5/ERRα-WT (WT) and empty pcDNA5 (used as control (CT)) constructs were transfected using Transfast (Promega). For clonal selection, cells were cultured for 4 weeks in the presence of puromycin (1 μg/ml PC3) (Invitrogen). XCT790, an inverse agonist of ERRα was tested in vitro on PC3 cells at 5.10^−7M compare to DMSO for 24 h.
Total RNA was extracted with Trizol reagent (Sigma) from PC3 cells, PC3 tumors, MC3T3-E1 cells. Samples of total RNA (2 μg) were reverse-transcribed using random hexamer (Promega) and the first strand synthesis kit of Superscript™ II (Invitrogen). Real-time RT-PCR was performed on a Roche Lightcycler Module (Roche) with primers specific for human and mouse. Real-time RT-PCR was carried out by using (SYBR Green; Qiagen,) on the LightCycler system on (Roche) according to the manufacturer's instructions with an initial step for 10 min at 95° C. followed by 40 cycles of 20 sec at 95° C., 10 sec at Tm (see Tables 1-2) and 10 sec at 72° C. We verified that a single peak was obtained for each product using the Roche software. Amplimers were all normalized to corresponding L32 values. Data analysis was carried out using the comparative Ct method: in real-time each replicate average genes CT was normalized to the average CT of L32 by subtracting the average CT of L32 from each replicate to give the ACT. Results are expressed as Log^-2 ΔΔCT with ΔΔCT equivalent to the ΔCT of the genes in PC3 (clone, XCT), tumors or treated MC3T3-E1 subtracting to the ACT of the endogenous control (empty vectors control for clones or tumors, DMSO for the XCT experiment and empty vectors control conditioned media treated MC3T3-E1 respectively).
To confirm the regulation of the factors identified in PC3 over-expressing ERRα, we treat PC3 cells by the inverse agonist XCT790 (5 10^−7M) for 24 hours. XCT790 is able to block the interaction between ERRα and his co-activators PGC1a and b that will have as a consequence the inhibition of ERRα transcriptional activity.

Structures are written as SMILES.

As to `COc1cc(/C=C(\C#N)C(=O)Nc2nnc(C(F)(F)F)s2)ccc1OCc1ccc(C(F)(F)F)cc1C(F)(F)F` [XCT790, (2E)-3-(4-{[2,4-bis(trifluoromethyl)benzyl]oxy}-3-methoxyphenyl)-2-cyano-N-[5-(trifluoromethyl)-1,3,4-thiadiazol-2-yl]acrylamide], the “CK (cathepsin K) expression (real-time PCR)” value is recorded as “no CK were found statistically down-regulated”, the “ET1 expression (real-time PCR)” value is given as “identified as direct ERRα/PGC1 target genes”, the “MCP1 expression (real-time PCR)” value is “statistically down-regulated” and the “OPG expression (real-time PCR)” value was “statistically down-regulated”. In addition, the “Runx2 expression (real-time PCR)” value was “statistically down-regulated”, the “Wnt3a expression (real-time PCR)” value is on record as “identified as direct ERRα/PGC1 target genes” and the “Wnt5a expression (real-time PCR)” value was “identified as direct ERRα/PGC1 target genes”.
